Assay results: article PMC10035947, “Development of novel anilinoquinazoline-based carboxylic acids as non-classical carbonic anhydrase IX and XII inhibitors” (Journal of Enzyme Inhibition and Medicinal Chemistry, 2023)
pKi: −log10 of the molar value.

How the values were obtained:
MCF7 = assay: NCI SRB assay; format: cell-based, human
SF-295 = assay: NCI SRB assay; format: cell-based, human
[1] = system: 59 human cancer cell lines representing nine tumour subpanels; assay: NCI SRB assay, panel and subpanel summaries; details: all cell lines
A498 = assay: NCI SRB assay; format: cell-based, human
NCI-H522 = assay: NCI SRB assay; format: cell-based, human
HOP-62 = assay: NCI SRB assay; format: cell-based, human
PC-3 = assay: NCI SRB assay; format: cell-based, human
OVCAR-8 = assay: NCI SRB assay; format: cell-based, human
MDA-MB-468 = assay: NCI SRB assay; format: cell-based, human
NCI-H23 = assay: NCI SRB assay; format: cell-based, human
HL-60(TB) = assay: NCI SRB assay; format: cell-based, human; details: HL-60(TB)
TK-10 = assay: NCI SRB assay; format: cell-based, human
CCRF-CEM = assay: NCI SRB assay; format: cell-based, human
M14 = assay: NCI SRB assay; format: cell-based, human
SN12C = assay: NCI SRB assay; format: cell-based, human; details: SN12C
K-562 = assay: NCI SRB assay; format: cell-based, human
SF-268 = assay: NCI SRB assay; format: cell-based, human
hCA II = molecular target: T1, hCA II (Homo sapiens, UniProt P00918); assay: stopped flow CO2 hydrase assay; format: biochemical; details: mean from 3 assays
T1 construct: made in house
Method in brief: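 Stopped-flow CO2 hydration with phenol red (0.2 mM) at 557 nm in 20 mM Hepes pH 7.5, 20 mM Na2SO4, CO2 1.7–17 mM, recombinant enzyme. Inhibitor preincubated 15 min at room temperature; uncatalyzed rate subtracted, Ki via Cheng-Prusoff, mean of ≥3 determinations.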

NCI-H322M = assay: NCI SRB assay; format: cell-based, human
HOP-92 = assay: NCI SRB assay; format: cell-based, human
CAKI-1 = assay: NCI SRB assay; format: cell-based, human
SNB-19 = assay: NCI SRB assay; format: cell-based, human
SNB-75 = assay: NCI SRB assay; format: cell-based, human
HCT-116 = assay: NCI SRB assay; format: cell-based, human
SK-MEL-5 = assay: NCI SRB assay; format: cell-based, human
DU-145 = assay: NCI SRB assay; format: cell-based, human

## Cc1ccc(-c2nc(Nc3ccc(C(=O)O)cc3)c3ccccc3n2)cc1 [8b, 4-((2-(p-Tolyl)quinazolin-4-yl)amino)benzoic acid]
MCF7; MCF7, 10 μM
  GI%: 37%
MCF7; MCF7, 1.00E-5 Molar
  Growth Percent: 63.19%
SF-295; SF-295, 10 μM
  GI%: 42%
SF-295; SF-295, 1.00E-5 Molar
  Growth Percent: 57.85%
[1]; 10 μM
  Mean GI %: 20%
[1]; 1.00E-5 Molar
  Mean Growth Percent: 80.19%
A498; A498, 10 μM
  GI%: – (Only GI% higher than 20% are shown)
A498; A498, 1.00E-5 Molar
  Growth Percent: 112.03%
NCI-H522; NCI-H522, 10 μM
  GI%: – (Only GI% higher than 20% are shown)
NCI-H522; NCI-H522, 1.00E-5 Molar
  Growth Percent: 91.02%
HOP-62; HOP-62, 10 μM
  GI%: – (Only GI% higher than 20% are shown)
HOP-62; HOP-62, 1.00E-5 Molar
  Growth Percent: 88.98%
PC-3; PC-3, 10 μM
  GI%: 23%
PC-3; PC-3, 1.00E-5 Molar
  Growth Percent: 77.04%
OVCAR-8; OVCAR-8, 10 μM
  GI%: – (Only GI% higher than 20% are shown)
OVCAR-8; OVCAR-8, 1.00E-5 Molar
  Growth Percent: 81.90%
MDA-MB-468; MDA-MB-468, 10 μM
  GI%: – (Only GI% higher than 20% are shown)
MDA-MB-468; MDA-MB-468, 1.00E-5 Molar
  Growth Percent: 108.74%
NCI-H23; NCI-H23, 10 μM
  GI%: – (Only GI% higher than 20% are shown)
NCI-H23; NCI-H23, 1.00E-5 Molar
  Growth Percent: 87.14%
HL-60(TB); 10 μM
  GI%: 24%
HL-60(TB); 1.00E-5 Molar
  Growth Percent: 76.30%
TK-10; TK-10, 10 μM
  GI%: – (Only GI% higher than 20% are shown)
TK-10; TK-10, 1.00E-5 Molar
  Growth Percent: 113.38%
CCRF-CEM; 10 μM
  GI%: 28%
CCRF-CEM; 1.00E-5 Molar
  Growth Percent: 71.96%
M14; M14, 10 μM
  GI%: – (Only GI% higher than 20% are shown)
M14; M14, 1.00E-5 Molar
  Growth Percent: 80.88%
SN12C; 10 μM
  GI%: 51%
SN12C; 1.00E-5 Molar
  Growth Percent: 48.99%
K-562; K-562, 10 μM
  GI%: 23%
K-562; K-562, 1.00E-5 Molar
  Growth Percent: 76.80%
SF-268; SF-268, 10 μM
  GI%: 30%
SF-268; SF-268, 1.00E-5 Molar
  Growth Percent: 70.34%
hCA II
  pKi: 5.41
NCI-H322M; 10 μM
  GI%: – (Only GI% higher than 20% are shown)
NCI-H322M; 1.00E-5 Molar
  Growth Percent: 84.20%
HOP-92; HOP-92, 10 μM
  GI%: 25%
HOP-92; HOP-92, 1.00E-5 Molar
  Growth Percent: 75.22%
CAKI-1; CAKI-1, 10 μM
  GI%: – (Only GI% higher than 20% are shown)
CAKI-1; CAKI-1, 1.00E-5 Molar
  Growth Percent: 88.42%
SNB-19; SNB-19, 10 μM
  GI%: 29%
SNB-19; SNB-19, 1.00E-5 Molar
  Growth Percent: 70.92%
SNB-75; SNB-75, 10 μM
  GI%: – (Only GI% higher than 20% are shown)
SNB-75; SNB-75, 1.00E-5 Molar
  Growth Percent: 95.80%
HCT-116; HCT-116, 10 μM
  GI%: 22%
HCT-116; HCT-116, 1.00E-5 Molar
  Growth Percent: 77.19%
SK-MEL-5; SK-MEL-5, 10 μM
  GI%: 28%
SK-MEL-5; SK-MEL-5, 1.00E-5 Molar
  Growth Percent: 71.66%
DU-145; DU-145, 10 μM
  GI%: – (Only GI% higher than 20% are shown)
DU-145; DU-145, 1.00E-5 Molar
  Growth Percent: 81.93%
